Reference: the NIST ThermoML archive (doi:10.1007/s10765-005-8096-3)

Assay: refractive index (Na D-line) (dimensionless); xn = mol fraction of the nth substance listed
Settings: 101 kPa, Liquid, Standard Abbe refractometry

Cc1cc(C)cc(C)c1 [1,3,5-trimethylbenzene] + CCCCOC(C)=O
refractive index
Settings	293.15 K	298.15 K	303.15 K	308.15 K	313.15 K
x2 = 0.0516	1.49409	1.4916	1.48907	1.48654	1.48399
x2 = 0.1002	1.48903	1.4866	1.48406	1.4816	1.47894
x2 = 0.1506	1.48392	1.48139	1.47885	1.47632	1.47373
x2 = 0.2009	1.4787	1.47618	1.47366	1.47112	1.4686
x2 = 0.2516	1.47339	1.4709	1.46844	1.46589	1.46337
x2 = 0.2995	1.4684	1.46588	1.46345	1.46088	1.45835
x2 = 0.3481	1.46333	1.46081	1.45838	1.4558	1.45332
x2 = 0.3998	1.4579	1.45539	1.45292	1.45039	1.44787
x2 = 0.4499	1.45266	1.45014	1.44772	1.44513	1.44264
x2 = 0.5012	1.44725	1.44474	1.44227	1.43973	1.43728
x2 = 0.5517	1.44194	1.43941	1.43693	1.43441	1.43194
x2 = 0.599	1.43693	1.4344	1.43191	1.42937	1.42693
x2 = 0.6518	1.43134	1.42882	1.42637	1.42379	1.42135
x2 = 0.702	1.42599	1.42348	1.42096	1.41847	1.41604
x2 = 0.7495	1.42089	1.41842	1.41595	1.41342	1.41096
x2 = 0.8007	1.41541	1.41296	1.4105	1.40803	1.40553
x2 = 0.8531	1.40984	1.40738	1.40488	1.40245	1.39998
x2 = 0.8998	1.40482	1.4024	1.39997	1.39751	1.39502
x2 = 0.9494	1.39954	1.3971	1.39467	1.39225	1.38972

CC(C)(C)c1ccccc1 [(1,1-dimethylethyl)benzene] + CCCCOC(C)=O
refractive index
Settings	293.15 K	298.15 K	303.15 K	308.15 K	313.15 K
x2 = 0.0517	1.48818	1.48564	1.48328	1.48061	1.47812
x2 = 0.1	1.48411	1.48154	1.47905	1.47649	1.47384
x2 = 0.1522	1.4795	1.47702	1.47452	1.47204	1.46953
x2 = 0.1995	1.47531	1.47273	1.47031	1.4677	1.46521
x2 = 0.2511	1.47077	1.46811	1.4657	1.46309	1.46062
x2 = 0.3008	1.46621	1.4636	1.4612	1.45859	1.45614
x2 = 0.3516	1.46145	1.45891	1.45652	1.45387	1.45137
x2 = 0.4061	1.45636	1.45381	1.45141	1.4488	1.44635
x2 = 0.4489	1.45221	1.44966	1.44727	1.4447	1.44226
x2 = 0.4994	1.44728	1.44477	1.44234	1.43978	1.43736
x2 = 0.5499	1.44227	1.43976	1.43736	1.43476	1.43237
x2 = 0.607	1.43649	1.434	1.43155	1.42904	1.42656
x2 = 0.6496	1.43209	1.42958	1.42717	1.42461	1.42212
x2 = 0.7006	1.42687	1.42436	1.42195	1.41938	1.41686
x2 = 0.7489	1.42175	1.41927	1.41683	1.41427	1.41174
x2 = 0.8013	1.41615	1.41367	1.41122	1.40871	1.40625
x2 = 0.8509	1.41079	1.40829	1.40593	1.40331	1.4009
x2 = 0.9005	1.40535	1.40288	1.40048	1.39799	1.39547
x2 = 0.95	1.39982	1.39742	1.3949	1.39263	1.39007

CC(C)Cc1ccccc1 [(2-methylpropyl)benzene] + CCCCOC(C)=O
refractive index
Settings	293.15 K	298.15 K	303.15 K	308.15 K	313.15 K
x2 = 0.056	1.48206	1.47965	1.47708	1.47442	1.47211
x2 = 0.1042	1.47812	1.47565	1.4731	1.47066	1.46813
x2 = 0.1619	1.47345	1.47097	1.4685	1.46595	1.4635
x2 = 0.201	1.47035	1.46781	1.46524	1.46268	1.46015
x2 = 0.2486	1.46644	1.46384	1.46128	1.45868	1.45618
x2 = 0.3027	1.4618	1.45922	1.45658	1.45405	1.45156
x2 = 0.3619	1.45664	1.45401	1.45147	1.44897	1.44641
x2 = 0.3994	1.4533	1.45072	1.44816	1.44564	1.4431
x2 = 0.4537	1.44838	1.44587	1.44328	1.44077	1.43826
x2 = 0.5056	1.44366	1.4411	1.43853	1.43602	1.43356
x2 = 0.5506	1.43942	1.43693	1.43443	1.43187	1.4294
x2 = 0.5973	1.43506	1.43254	1.43002	1.4275	1.42498
x2 = 0.6485	1.43012	1.42758	1.42505	1.42256	1.42003
x2 = 0.6954	1.42551	1.423	1.42052	1.41799	1.41549
x2 = 0.751	1.41999	1.41754	1.41506	1.41255	1.41004
x2 = 0.7981	1.41525	1.41278	1.4103	1.40782	1.40532
x2 = 0.8469	1.41021	1.40779	1.40535	1.4029	1.40036
x2 = 0.8995	1.40482	1.40235	1.39997	1.39757	1.39493
x2 = 0.9482	1.39966	1.3973	1.39479	1.39237	1.38994
